The numbers were not newly measured in patent US8394592B2, “Methods for assessing cancer susceptibility to carcinogens in tobacco products” (The Board of Regents of the University of Texas System, priority 2006, dated 2013), which cites them from elsewhere.

In this data set the test system is Salmonella. Conditions: Ames Salmonella assay; cited from earlier work.

For `CN(CCCC(=O)c1cccnc1)N=O` [NNK, 4-(methylnitrosamino)-1-(3-pyridyl)-1-butanone], the mutagenicity result is “potent mutagen”.
